The subject of assay [1] is Gram-negative and Gram-positive bacteria. Conditions: cited from earlier work. The text has this:
Problems such as salt sensitivity, cost of synthesis, bioavailability, and stability have limited the therapeutic applications of antimicrobial peptides. Among these problems, salt sensitivity is directly related to the microbicidal mechanism of antimicrobial peptides. […] Similar problems have also been found with other antimicrobial peptides. || Recently, solution structures of S1 (Ac-KKWRKWLAKK-NH2) and S1-Nal-Nal (Ac-KKWRKWLAKKNal-Nal-NH2) in complex with LPS micelles have been reported. Both S1 and S1-Nal-Nal bound to LPS through the hydrophilic surface of their helices to the negatively charged region of LPS. S1-Nal-Nal further inserted deeper into the hydrophobic core of LPS micelles and created better hydrophobic interactions of its C-terminal β-naphthylalanine end-tags with the lipid A motif of LPS. The LPS-induced inflammation might then be prohibited. Moreover, a strategy was developed to increase salt resistance and L ... || To investigate the amphipathic helix–AGP–hydrophobic helix on the antimicrobial and neutralization activities of LPS, two peptides KR12 and RW6 were used for the N-terminal and C-terminal helices. […] Sequences of the designed peptides are listed in Table 1 and their helical wheel analyses ar ...

The subject of assay [2] is Acinetobacter sp. (BCRC number 14B0100). It counts as cell-based. To be noted: MH and LYM media. The text has this:
(§1) Escherichia coli strain (ATCC 25922), Staphylococcus aureus sp. strain (ATCC 25923), Pseudomonas aeruginosa Migula strain (ATCC 27853) and Acinetobacter sp. (BCRC number 14B0100) were used to test the antibacterial activity of the peptides. All bacteria were purchased from Food Industry Research and Development Institute (Hsinchu, Taiwan), and Acinetobacter sp. is multiresistant to Ampicillin, Cefazolin, Cefoxitin, Ceftazidime, Ceftriaxone, Ciprofloxacin, Penicillin, Tetracycline and Imipenem. Bacteria were cultured in sterilized MH (Müller−Hinton) broth at 200 rpm and 37 °C for 8 h. After 8 h of culture, the concentrations of the inoculums were determined by measuring absorbance of optical density at 600 nm (OD 600 = 1, equal to approximately 10^8 CFU/mL) with Ultrospec 2100 pro UV−Visible spectrophotometer (Biochrom Ltd., Cambridge, UK)).
(§2) The antibacterial activities were determined by the standard broth microdilution method of the National Committee for Clinical Laboratory Standards with the MH and LYM broth. The LYM broth contains 5.4 mM KCl, 5.6 mM Na2HPO4, 0.5 mM MgSO4, and 1.0 mM sodium citrate. In addition, 0.4 mg of ZnCl2, 2.0 mg of FeCl3·6H2O, 0.1 mg of CuSO4·5H2O, 0.1 mg of MnSO4·H2O, 0.1 mg of Na2B4O7·10H2O, 700 mg of amino acid mixtures without tryptophan (Clontech), and 20 mg of L-tryptophan were added per liter of medium. A vitamin mixture (100X, Sigma) and glucose at final concentration of 2% were also added. We made 1 µL peptide solutions (ranging from 3200 µg/mL to 100 µg/mL in serial dilution) and mixed with 99 µL inoculum (5 × 10^5 CFU/mL) in a polypropylene 96-well plate. We measured the turbidity at OD 600 nm by ELISA plate reader (Thermo Max, Molecular Devices, Sunnyvale, CA, USA). The absorbance of culture medium and inoculum suspension without peptides were used as the negative and positive control, respectively. The MIC value is the lowest concentration of peptide at which there is no obvious growth (equal or more than 90%). […] All peptides were tested in triplicate.

Assay [3] deals with LPS (interaction between LPS and factor C). The assay is described as follows: Limulus amebocyte lysate (LAL) assay, LPS binding and neutralization. It counts as biochemical, Limulus Polyphemus. Conditions: peptide 64 μg/mL; CSE 5 EU; absorbance 405 nm, 37 °C; triplicate. The procedure:
The ability of binding and neutralizing LPS in vitro was measured by the LAL assay which is well-known as the most sensitive and specific method.
The abilities of designed peptides to bind and neutralize LPS were assessed using Limulus amebocyte lysate (LAL) assay (Cape Cod Inc., East Falmouth, MA, USA). LAL is an extract of amebocytes from the Atlantic horseshoe crab Limulus Polyphemus. LAL reacts with lipopolysaccharide (LPS) from bacteria. Different concentrations (5, 4, 2, 1, 0.5 EU) of control standard LPS (CSE) were mixed with LAL reagent water at the same volume of 25 μL to make a standard curve. The samples of 25 μL of different peptide concentrations (128, 64, 32, 16, 8 μg/mL) were mixed with 25 μL CSE (5 EU) in a 96-well plate. A portion of 50 μL of pyrochrome reagent was added to the wells immediately. The absorbance at 405 nm was measured by microplate reader at 37 °C every minute until 25 min.

Assay [4] relates to Gram-positive and Gram-negative bacteria. In kind it is cell-based.
Description: as §1, §2

Read-outs that look alike come from different tables or passages of the source.

AKRHHGYKRKFH-NH2 [Peptide P-113]: in assay [1] (high salt conditions), the “Efficacy in high salt conditions” value is recorded as “greatly reduced”. With “Ac-KRIVQRIKDFLR-NH2 [KR12, reference compound]”, in assay [2], the “Effectiveness against Acinetobacter sp. compared with the other three bacteria strains” value is recorded as “more effective”. Besides, in assay [3], the “LPS neutralization, inhibition in LAL assay” value is on record as “less than 25%”. Also, the Antimicrobial activities entry in assay [1] was “possess antimicrobial activities”.

As to WRWWRR [WR6], the Antimicrobial activities entry in assay [1] is “moderate antimicrobial activities”. As to “Ac-KRIVQRIKDFLRAGPRRWWRW-NH2 [KR12AGPWR6]”, the MIC in assay [4] (8 h) is given as 2~4 μg/mL. Regarding “Ac-KRIVQRIKDFLRAGPRRLVRI-NH2 [KR12AGPVR6]”, the MIC in assay [4] (8 h) is listed as 4~32 μg/mL.

In the case of Ac-RRWWRW-NH2 [RW6], the MIC in assay [4] (8 h) is 8~32 μg/mL; in assay [4] (MH broth, inoculum 5 × 10^5 CFU/mL, OD 600 nm, triplicate), “lost its antibacterial activity”. For the same substance, the “MIC (antibacterial activity)” value in assay [4] (LYM broth with >100 mM NaCl added, triplicate) is recorded as “lost its antibacterial activity”. Besides, the “LPS neutralization, inhibition in LAL assay” value in assay [3] is recorded as “less than 25%”.

The values are drawn from paper PMC7554977, “Antimicrobial Peptides with Enhanced Salt Resistance and Antiendotoxin Properties” (International Journal of Molecular Sciences, 2020).
